Entries after “also recorded” stand apart in the source; their conditions may differ.
Columns and labels:
human complement C9 = experiment: Microscale thermophoresis (MST) binding to human C9; details: for binding to human C9: NT-647-labeled human C9 1.5 μM, peptides diluted from 1.68 to 0 mM, distilled water with 0.05% Tween 20, 10 min room temperature, three independent measurements
Description: (§1) To assess the binding affinity of the peptides to human or mouse complement C9, a fluorescence-based biophysical technique known as MST (NanoTemper Technologies GmbH, Germany) was used. Briefly, human or mouse C9 was fluorescently labeled using a Monolith NT™ Protein Labeling Kit NT-647 (NanoTemper Technologies GmbH, Germany) based on the manufacturer's protocol. Next, the peptides were gradiently diluted in distilled water from 1.68 to 0 mM. The labeled human or mouse C9 (1.5 μM) was then incubated with various peptide concentrations for 10 min at room temperature before being loaded into K002 silica capillaries. Measurements were performed using a NanoTemper Monolith NT.115 instrument in distilled water containing 0.05% Tween 20. The data were analyzed using NanoTemper Analysis software (NanoTemper Technologies GmbH, Germany).
Figure 1 Modified peptide bound to human complement C9 and inhibited C9 polymerization-induced bio-function. (A) Microscale thermophoresis assay (NanoTemper) in which biomolecular interactions were quantitated by examining the motion of the molecules along a microscopic temperature gradient induced by an infrared laser. Changes in the molecular hydration shell, charge, or size are measured using a fluorescent probe (NT-647) bound covalently to the human C9. Binding of control, modified and original peptides to human C9 were studied. Data points indicate the differences in normalized fluorescence (%) generated by peptides binding to […], and curves indicate the calculated fits. […] Error bars represent the standard error of three independent measurements. […] Lane M: standard protein markers; lane 1: blank control (C9 without Zn^2+); lane 2: positive control (C9 with Zn^2+); lane 3: 5.24 μmol original peptide; lanes 4–6, 1.31, 2.62, and 5.24 μmol modified peptide, respectively; lane 7, 5.24 μmol control peptide. (C) Normal human serum (NHS)-induced complement-mediated hemolysis was inhibited by the modified and original peptides (2.62 and 5.24 μmol) compared to the control peptide. All experiments were performed three times and data are presented as mean ± SD. *p < 0.05, **p < 0.01.

recombinant mouse C9 = experiment: Microscale thermophoresis (MST) binding to recombinant mouse C9; details: NT-647-labeled mouse C9 1.5 μM, peptides 1.68 to 0 mM, distilled water with 0.05% Tween 20, three independent measurements
Description: as §1
To evaluate whether the modified peptide can cross the species barrier to inhibit murine MAC assembly in addition to human MAC assembly and to provide a preliminary experimental basis for the in vivo mouse experiments, MST assays were used again to assess the binding ability of the peptides to recombinant mouse C9. […] To evaluate whether this binding can inhibit NMS-induced erythrocyte lysis (involving the alternative complement pathway), hemolytic assays were performed.
(A) Microscale thermophoresis assay (NanoTemper) in which biomolecular interactions are quantitated by examining the motion of the molecules along a microscopic temperature gradient induced by an infrared laser. Changes in the molecular hydration shell, charge, or size are measured using a fluorescent probe (NT-647) bound covalently to the mouse C9. Binding of control, modified and original peptides to mouse C9 were studied. […] Data points indicate the differences in normalized fluorescence (%) generated by peptides binding to mouse C9, and curves indicate the calculated fits. Error bars represent the standard error of three independent measurements. […] All experiments were performed three times and data are presented as mean ± SD. *p < 0.05, **p < 0.01.

[1] = system: complement in normal mouse serum (NMS); rabbit erythrocytes; experiment: NMS-induced complement-mediated hemolysis of rabbit erythrocytes (alternative pathway); format: cell-based; details: for inhibition of NMS-induced erythrocyte lysis: NMS 1:12.5, peptide 1.31, 2.62, 5.24 μmol, Mg-EGTA, 37°C 40 min, then rabbit erythrocytes 1 × 10^8, 30 min 37°C, absorbance 412 nm; for inhibition of NMS-induced erythrocyte lysis / inhibition of NMS-induced hemolysis compared to control peptide: three experiments; for NMS-induced erythrocyte lysis at 5.24 μmol: peptide 5.24 μmol, NMS 1:12.5; for inhibition of NMS-induced hemolysis compared to control peptide: peptide 2.62 and 5.24 μmol, *p < 0.05, **p < 0.01
Description: Normal human serum (NHS) was collected from six healthy volunteers, and the donation procedure was approved by the Institutional Review Board (IRB) of Capital Medical University (approval number: 2016SY01). After venous blood was collected, it was clotted in serum separator tubes for 4 h at room temperature and then centrifuged at 1,000 g for 30 min to obtain the serum. The serum was divided into aliquots and stored at −80°C. To obtain normal mouse serum (NMS), blood was collected in the […] of mice under ether anesthesia and the serum was separated and stored as described above.
When rabbit erythrocytes are placed in xenogeneic serum (such as NHS or NMS), the alternative pathway of the complement system is activated, causing lysis of the rabbit erythrocytes. To evaluate the effects of the peptides on the complement activation-mediated erythrocyte lysis (involving the alternative complement pathway), NHS or NMS (1:12.5) was incubated with various concentrations of peptides (1.31, 2.62, and 5.24 μmol) in Mg-EGTA solution (5 mM MgCl2, 10 mM EGTA) at 37°C for 40 min before adding the mixture to freshly washed erythrocytes (1 × 10^8) in gelatin veronal-buffered saline (pH 7.4, containing 0.1% gelatin) for 30 min at 37°C. Lysis was stopped with cold Hanks' Balanced Salt Solution (HBSS^++) containing 10 mM ethylenediaminetetraacetic acid (EDTA). The samples were then centrifuged at 1,000 g for 10 min to obtain the supernatant, and the amount of released hemoglobin in the supernatant was determined by measuring the absorbance at 412 nm. The hemolytic activity relative to the water-induced lysis among the same number of erythrocytes was calculated.
Figure 2 Modified peptide bound to mouse complement C9 and inhibited normal mouse serum (NMS)-induced hemolysis of rabbit erythrocytes. (A) Microscale thermophoresis assay (NanoTemper) in which biomolecular interactions are quantitated by examining the motion of the molecules along a microscopic temperature gradient induced by an infrared laser. Changes in the molecular hydration shell, charge, or size are measured using a fluorescent probe (NT-647) bound covalently to the mouse C9. Binding of control, modified and original peptides to mouse C9 were studied. […] Data points indicate the differences in normalized fluorescence (%) generated by peptides binding to mouse C9, and curves indicate the calculated fits. Error bars represent the standard error of three independent measurements. (B) NMS-induced complement-mediated hemolysis was inhibited by the modified and original peptides (2.62 and 5.24 μmol) compared to the control peptide. All experiments were performed three times and data are presented as mean ± SD. *p < 0.05, **p < 0.01.

For “VSMGKSLSSKVYVM [original peptide, tetradecapeptide derived from Trichinella spiralis paramyosin (Ts-pmy)]”, the “binding to human C9” value (human complement C9) was “human C9 could bind to both the original and modified peptides; also recorded: concentration-dependent binding”, the “binding to recombinant mouse C9” value (recombinant mouse C9) was “could bind to the recombinant mouse C9; also recorded: concentration-dependent binding” and the “inhibition of NMS-induced erythrocyte lysis” value [1] was “inhibited in a dose-dependent manner”. For the same substance, the “NMS-induced erythrocyte lysis at 5.24 μmol” value [1] was “reduced, to a similar level to the NHS-induced erythrocyte lysis” and the “inhibition of NMS-induced hemolysis compared to control peptide” value [1] was “inhibited”.
For “Myr-GSSKSPSKKKKKKPG-ACP-VSMGKSLSSKVYVM [modified peptide, Ts-pmy-derived peptide modified with a membrane-targeting signal]”, the “binding to human C9” value (human complement C9) was “human C9 could bind to both the original and modified peptides; also recorded: concentration-dependent binding”, the “binding affinity to human C9 compared with original peptide” value (human complement C9; labeled human C9 1.5 μM, peptides 1.68 to 0 mM, Kd not given) was “binding affinity that was similar to that of the original peptide” and the “binding to recombinant mouse C9” value (recombinant mouse C9) was “could bind to the recombinant mouse C9; also recorded: concentration-dependent binding”. The “inhibition of NMS-induced erythrocyte lysis” value [1] was “inhibited in a dose-dependent manner”, the “NMS-induced erythrocyte lysis at 5.24 μmol” value [1] was “reduced, to a similar level to the NHS-induced erythrocyte lysis” and the “inhibition of NMS-induced hemolysis compared to control peptide” value [1] was “inhibited”.
In the case of “GKMSVMSVYKSVLS [control peptide, reference compound]”, the “binding to human C9” value (human complement C9) was “no binding between human C9 and the control peptide”, the “binding to recombinant mouse C9” value (recombinant mouse C9) was “could not” and the “inhibition of NMS-induced erythrocyte lysis” value [1] was “no inhibitory effect”.

From PMC7785802, “Therapeutic Efficacy of a Trichinella Spiralis Paramyosin-Derived Peptide Modified With a Membrane-Targeting Signal in Mice With Antigen-Induced Arthritis” (Frontiers in Microbiology, 2020)
